# Laboratory results as given in patent publication US8993552B2, “Compositions and methods for treatment of leukemia” (The Regents of The University of Michigan, priority 2009, dated 2015).
# “Also recorded” adds a separate entry of the source.
# Legend:
# menin-MLL interaction [1] = biological target: T1, menin-MLL interaction (Homo sapiens (Human), UniProt O00255); experiment: HTRF (TR-FRET) assay, His-tagged menin and biotinylated MLL peptide; format: binding
# menin-MLL interaction [2] = biological target: T1, menin-MLL interaction; experiment: Fluorescence polarization (FP) competition assay with fluorescein-labeled MLL peptide; format: binding; conditions: for in vitro activity in FP assay relative to parent Compound 1: in words;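 for all read-outs here: Read-out is fluorescence anisotropy of fluorescein-labeled MLL peptide bound to menin, inhibitors displace the peptide and lower anisotropy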
# menin = menin (Homo sapiens (Human), UniProt O00255); experiment: NMR STD / competition STD binding experiments; conditions: 2.5 μM menin
# Sequence of menin (O00255 whole entry): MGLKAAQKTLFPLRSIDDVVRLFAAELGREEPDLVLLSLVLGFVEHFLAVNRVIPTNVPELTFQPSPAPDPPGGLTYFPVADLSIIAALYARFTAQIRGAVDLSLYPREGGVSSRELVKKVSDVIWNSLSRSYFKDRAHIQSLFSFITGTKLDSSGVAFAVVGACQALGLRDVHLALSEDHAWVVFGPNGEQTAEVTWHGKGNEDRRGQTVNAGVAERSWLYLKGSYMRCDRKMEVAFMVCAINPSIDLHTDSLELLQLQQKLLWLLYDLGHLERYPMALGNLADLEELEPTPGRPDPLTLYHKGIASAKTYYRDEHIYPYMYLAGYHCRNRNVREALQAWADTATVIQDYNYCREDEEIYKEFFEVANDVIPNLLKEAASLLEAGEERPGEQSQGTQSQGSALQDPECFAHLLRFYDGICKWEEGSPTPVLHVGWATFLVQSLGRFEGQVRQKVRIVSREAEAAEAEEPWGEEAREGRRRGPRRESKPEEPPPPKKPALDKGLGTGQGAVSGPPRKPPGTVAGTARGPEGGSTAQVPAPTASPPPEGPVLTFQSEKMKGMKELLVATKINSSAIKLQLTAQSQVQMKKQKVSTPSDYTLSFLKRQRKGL
# HK-2 (kidney) cell line = experiment: MTT viability assay, kidney cell line
# Hep-G2 (liver) cell line = experiment: MTT viability assay, liver cell line
# [3] = system: human leukemia cell lines with MLL translocations (MV4;11, KOPN-8, THP-1, MonoMac6); experiment: MTT viability assay in MLL leukemia cell lines; format: cell-based; conditions: in words
# Hoxa9 promoter = experiment: Luciferase reporter assay in HEK293 cells transfected with MLL-AF9
# [4] = system: non-MLL leukemia cell lines (Kasumi-1, ME-1); experiment: MTT viability assay in non-MLL leukemia cell lines; format: cell-based, human; conditions: Kasumi-1 (AML1-ETO), ME-1 (CBFβ-SMMHC)
# [5] = system: Hoxa9 and Meis1 expression; experiment: qRT-PCR of MLL downstream targets in THP-1 cells
# THP-1 leukemia cells = experiment: Differentiation of THP-1 cells, CD11b by flow cytometry; format: cell-based, human
# Text: Thienopyrimidine and benzodiazepine compounds induce differentiation of the MLL leukemia cells.
# menin-MLL interaction [6] = biological target: T1, menin-MLL interaction; conditions: 50 μM and 25 μM compound, vs DMSO control
# [7] = Table 1, NA = no activity, NS = no saturation on titration curve, read-out: IC50 in FP assay with FLSN-MLL
# [8] = Table 1, NA = no activity, NS = no saturation on titration curve
# [9] = Table 3, NA = no activity, read-out: IC50 in FP assay with FLSN-MLL
# [10] = FP competition, read-out: IC50 for inhibition of the menin-MLL interaction
# [11] = Table 4, NA = no activity, NS not defined in this table, read-out: IC50 in FP assay with FLSN-MLL
# [12] = Table 2, FP assay, read-out: IC50
# T1 sequence (O00255 whole entry): as above
compound,measurement,setting,value
CCc1cc2c(N3CCN(Cc4ccccc4)CC3)ncnc2s1 [Compound 2],IC50,menin-MLL interaction [1]; Table 1,85 µM
same,IC50,menin-MLL interaction [2]; [7],42 µM
c1cn(CCCNc2ncnc3sc4c(c23)CCCCC4)cn1 [Compound 3],IC50,menin-MLL interaction [1]; Table 1,35 µM
same,IC50,menin-MLL interaction [2]; [7],83 µM
CCc1cc2c(N3CCN(C)CC3)ncnc2s1 [Compound 7],IC50,menin-MLL interaction [2],170 µM
CCc1cc2c(N3CCN(c4ccccn4)CC3)ncnc2s1 [Compound 8],IC50,menin-MLL interaction [2]; [7],60 µM
CCc1cc2c(N3CCN(c4ncccn4)CC3)ncnc2s1 [Compound 10],IC50,menin-MLL interaction [2]; [7],250 µM
CN1CCN(c2ncnc3oc(-c4ccccc4)c(-c4ccccc4)c23)CC1 [Compound 11],IC50,menin-MLL interaction [2]; [7],500 µM
CCOC(=O)c1sc2nc(CN3CCOCC3)nc(N3CCN(c4nccs4)CC3)c2c1C [Compound 12],IC50 in FP assay with FLSN-MLL,menin-MLL interaction [2]; [8],NA up to 100 μM
Cc1csc(N2CCN(c3nc(CN4CCOCC4)nc4sc5c(c34)CCC(C)C5)CC2)n1 (stereo not shown) [Compound 14],IC50,menin-MLL interaction [2]; [7],250 µM
Cc1csc(N2CCN(c3nc(C)nc4sc5c(c34)CCCC5)CC2)n1 [Compound 15],IC50,menin-MLL interaction [2]; [7],49 µM
Cc1c(-c2ccccc2)sc2ncnc(N3CCN(c4nccs4)CC3)c12 [Compound 16],IC50,menin-MLL interaction [2]; [7],71 µM
CCN(CC)Cc1nc(N2CCN(c3nccs3)CC2)c2c(C)c(C)sc2n1 [Compound 17],IC50 in FP assay with FLSN-MLL,menin-MLL interaction [2]; [8],NA up to 250 uM
Fc1ccc(-c2csc3ncnc(N4CCN(c5nccs5)CC4)c23)cc1 [Compound 20],IC50,menin-MLL interaction [2]; [7],125 µM
c1ccc(-c2cc3c(N4CCN(c5nccs5)CC4)ncnc3s2)cc1 [Compound 21],IC50,menin-MLL interaction [2]; [7],50 µM
c1cnc(N2CCN(c3ncnc4sccc34)CC2)nc1 [Compound 24],IC50 in FP assay with FLSN-MLL,menin-MLL interaction [2]; [8],NA up to 1 mM
CN1CCCN(c2ncnc3sccc23)CC1 [Compound 27],IC50,menin-MLL interaction [2]; [7],350 µM
Cc1cc2c(N3CCN(c4ccccc4)CC3)ncnc2s1 [Compound 29],IC50 in FP assay with FLSN-MLL,menin-MLL interaction [2]; [8],NA up to 250 μM
c1csc(N2CCN(c3ncnc4sccc34)CC2)n1 [Compound 31],IC50,menin-MLL interaction [2]; [7],29.5 µM
CC(=O)N1c2ccccc2NC2=C(C(=O)CC(c3ccc(C(C)(C)C)cc3)C2)C1c1ccncc1 (stereo not shown) [Compound 33],"binding to menin by NMR (STD, competition STD with MLL peptide)",menin,specific binding
same,toxicity in viability assay,HK-2 (kidney) cell line,no substantial signs of toxicity
same,IC50,menin-MLL interaction [1]; Table 3,28 µM
same,toxicity in viability assay,Hep-G2 (liver) cell line,no substantial signs of toxicity
same,IC50,menin-MLL interaction [2]; [9],29 µM
CC1(C)CC(=O)C2=C(C1)Nc1ccccc1NC2c1ccc2c(c1)OCO2 (stereo not shown) [Compound 34],IC50,menin-MLL interaction [2]; [9],12 µM
COc1cc(C2Nc3ccccc3NC3=C2C(=O)CC(C)(C)C3)cc(OC)c1OC (stereo not shown) [Compound 35],IC50,menin-MLL interaction [2]; [9],35 µM
O=C1CC(c2ccc3c(c2)OCO3)CC2=C1C(c1cccnc1)Nc1ccccc1N2 (stereo not shown) [Compound 36],IC50,menin-MLL interaction [2]; [9],63 µM
COc1ccc(C2CC(=O)C3=C(C2)Nc2ccccc2NC3c2cccnc2)cc1OC (stereo not shown) [Compound 37],IC50,menin-MLL interaction [2]; [9],100 µM
COc1ccc(C2CC(=O)C3=C(C2)Nc2ccccc2NC3c2ccccc2C)cc1OC (stereo not shown) [Compound 38],IC50,menin-MLL interaction [2]; [9],115 µM
O=C1CC(c2ccc3c(c2)OCO3)CC2=C1C(c1ccncc1)Nc1ccccc1N2 (stereo not shown) [Compound 39],growth inhibition of MLL leukemia cells,[3],no effect; also recorded: no growth inhibition
same,transactivation of the Hoxa9 promoter,Hoxa9 promoter,No effect
same,IC50,menin-MLL interaction [2]; [9],230 µM
Nc1cccc(-c2cccnc2)c1 [Compound 42],"binding to menin by NMR (STD, competition STD with MLL peptide)",menin,Binding to menin was confirmed
same,IC50,menin-MLL interaction [2]; [10],50 µM
same,IC50,menin-MLL interaction [2]; [11],50 µM
NC(=O)Cc1nc(-c2ccc(F)cc2)cs1 [Compound 43],"binding to menin by NMR (STD, competition STD with MLL peptide)",menin,Binding to menin was confirmed
same,IC50,menin-MLL interaction [1]; Table 4,200 µM
same,IC50,menin-MLL interaction [2]; [11],230 µM
Cc1nn(-c2ccccc2)nc1C(N)=O [Compound 44],"binding to menin by NMR (STD, competition STD with MLL peptide)",menin,Binding to menin was confirmed
same,IC50,menin-MLL interaction [2]; [11],380 µM
OCc1ccc(-c2ccncc2)cc1 [Compound 45],"binding to menin by NMR (STD, competition STD with MLL peptide)",menin,Binding to menin was confirmed
same,IC50,menin-MLL interaction [2]; [11],510 µM
NC(=O)Cc1nc(-c2ccccc2)cs1 [Compound 46],IC50,menin-MLL interaction [2]; [11],2000 µM
COc1ccc(-c2csc(CC(N)=O)n2)cc1 [Compound 47],IC50,menin-MLL interaction [1]; Table 4,33 µM
same,IC50,menin-MLL interaction [2]; [11],67 µM
same,potency relative to the original hit (6G10),menin-MLL interaction [2]; inhibition of the menin-MLL interaction,about 4 fold
O=C(Cc1nc(-c2ccccc2)cs1)Nc1ccccc1 [Compound 48],D in FP assay,"menin-MLL interaction [2]; Table 4, at 0.5 mM",30%
NC(=O)Cc1nc(-c2ccc(Br)cc2)cs1 [Compound 49],D in FP assay,"menin-MLL interaction [2]; Table 4, at 1.0 mM",10%
Cc1ccccc1NC(=O)Cc1nc(-c2ccc(F)cc2)cs1 [Compound 50],IC50,menin-MLL interaction [2]; [11],122 µM
COC(=O)Cc1nc(C2CCCCC2)cs1 [Compound 51],IC50,menin-MLL interaction [2]; [11],1900 µM
O=C(Cc1nc(-c2ccc(F)cc2)cs1)N1CCOCC1 [Compound 52],IC50,menin-MLL interaction [2]; [11],107 µM
O=C(Cc1nc(-c2ccc(Cl)cc2)cs1)NCc1ccccc1 [Compound 53],IC50,menin-MLL interaction [2]; [11],1060 µM
NC(=O)Cc1nc(-c2cccc(Cl)c2)cs1 [Compound 54],IC50,menin-MLL interaction [2]; [11],137 µM
Cc1ccc(-c2csc(CC(N)=O)n2)cc1C [Compound 56],D in FP assay,"menin-MLL interaction [2]; Table 4, at 0.5 mM",30%
Cc1cc(C)c(-c2csc(CC(N)=O)n2)cc1C [Compound 57],IC50,menin-MLL interaction [2]; [11],1200 µM
COc1ccc(-c2csc(CC(N)=O)n2)cc1Br [Compound 58],IC50,menin-MLL interaction [2]; [11],80 µM
CCCC(=O)Nc1ccc(-c2nc(CC(N)=O)sc2C)cc1 [Compound 59],IC50,menin-MLL interaction [2]; [11],830 µM
CCc1cc2c(N3CCN(Cc4ccc(Cl)cc4)CC3)ncnc2s1 [Compound 60],IC50,menin-MLL interaction [2]; [12],30 µM
CCc1cc2c(N3CCN(CC(=O)N4CCOCC4)CC3)ncnc2s1 [Compound 61],IC50,menin-MLL interaction [2]; [12],20 µM
CCc1cc2c(N3CCN(C(=O)c4ccccc4)CC3)ncnc2s1 [Compound 62],IC50,menin-MLL interaction [2]; [12],10 µM
CCc1cc2c(N3CCN(C(=O)c4ccco4)CC3)ncnc2s1 [Compound 63],effect on growth of non-MLL leukemia cell lines,[4],No or very limited effect
same,expression level of Hoxa9 and Meis1,[5],Downregulation
same,IC50,menin-MLL interaction [2]; [12],12 µM
CCc1cc2c(N3CCN(c4nnc(C(F)(F)F)s4)CC3)ncnc2s1.Cl [Compound 66],IC50,menin-MLL interaction [2]; [12],1.1 µM
same,in vitro activity in FP assay relative to parent Compound 1,menin-MLL interaction [2],more potent activity
CC(C)c1cc2c(N3CCN(C4=NCC(C)(C)S4)CC3)ncnc2s1 [Compound 67],expression of CD11b on the cell surface,THP-1 leukemia cells,increased expression of CD11b
same,inhibition of the menin-MLL interaction in cells (co-IP),menin-MLL interaction [6],effectively inhibit
same,IC50,menin-MLL interaction [2]; [12],0.65 µM
same,in vitro activity in FP assay relative to parent Compound 1,menin-MLL interaction [2],more potent activity
CC(C)c1cc2c(N3CCN(c4nnc(C(F)(F)F)s4)CC3)ncnc2s1 [Compound 68],IC50,menin-MLL interaction [2]; [12],2.4 µM
CCc1cc2c(N3CCN(CC(=O)N4CCN(C)CC4)CC3)ncnc2s1 [Compound 69],IC50,menin-MLL interaction [2]; [12],16 µM
CC1(C)CN=C(N2CCN(c3ncnc4sc(Cc5ccccc5)cc34)CC2)S1 [Compound 71],IC50,menin-MLL interaction [2]; [12],4.6 µM
CC1(C)CN=C(N2CCN(c3ncnc4sc(Br)cc34)CC2)S1 [Compound 72],IC50,menin-MLL interaction [2]; [12],4.8 µM
COc1ccc(CN2CCCN(c3ncnc4sc(C)c(C)c34)CC2)cc1 [Compound 73],IC50,menin-MLL interaction [2]; [12],20 µM
CCc1cc2c(N3CCCN(CC(=O)N4CCCC4)CC3)ncnc2s1 [Compound 74],IC50,menin-MLL interaction [2]; [12],7 µM
CC(C)c1cc2c(N3CCCN(C4=NCC(C)(C)S4)CC3)ncnc2s1 [Compound 75],IC50,menin-MLL interaction [2]; [12],32 µM
CCc1cc2c(N3CCCN(C4=NCC(C)(C)S4)CC3)ncnc2s1 [Compound 76],IC50,menin-MLL interaction [2]; [12],6.3 µM
Cc1sc2ncnc(NC3CCN(Cc4ccccc4)CC3)c2c1C [Compound 77],IC50,menin-MLL interaction [2]; [12],8.7 µM
c1ccc(CN2CCC(Nc3ncnc4sc5c(c34)CCC5)CC2)cc1 [Compound 78],IC50,menin-MLL interaction [2]; [12],12 µM
CC1CCc2c(sc3ncnc(NC4CCN(Cc5ccccc5)CC4)c23)C1 (stereo not shown) [Compound 79],IC50,menin-MLL interaction [2]; [12],20 µM
CCc1cc2c(NC3CCN(Cc4ccccc4)CC3)ncnc2s1 [Compound 80],IC50,menin-MLL interaction [2]; [12],1.3 µM
CCc1cc2c(NCC3CCN(Cc4cccc(C)c4)CC3)ncnc2s1 [Compound 81],IC50,menin-MLL interaction [2]; [12],40 µM
CCc1cc2c(NCC3CCN(Cc4ccc(F)cc4)CC3)ncnc2s1 [Compound 82],IC50,menin-MLL interaction [2]; [12],4.4 µM
CCc1cc2c(NCCN(CC)Cc3ccccc3)ncnc2s1 [Compound 83],IC50,menin-MLL interaction [2]; [12],27 µM
CC(=O)N1c2ccccc2NC2=C(C(=O)CC(c3ccc(C)cc3)C2)C1c1cccnc1 (stereo not shown) [Compound 84],IC50,menin-MLL interaction [2]; [9],100 µM
COc1ccc(C2CC(=O)C3=C(C2)Nc2ccccc2N(C(C)=O)C3c2cccnc2)cc1 (stereo not shown) [Compound 85],IC50,menin-MLL interaction [2]; [9],72 µM
CC(=O)N1c2ccccc2NC2=C(C(=O)CC(c3ccc(Cl)c(Cl)c3)C2)C1c1cccnc1 (stereo not shown) [Compound 86],growth inhibition of MLL leukemia cells,[3],strongly inhibited growth
same,effect on growth of non-MLL leukemia cell lines,[4],no or very limited effect on cell growth
same,expression level of Hoxa9 and Meis1,[5],Downregulation of Hoxa9 and Meis1 expression
same,IC50,menin-MLL interaction [2]; [10],7.4 µM
same,IC50,menin-MLL interaction [2]; [9],7.4 µM
